Patent publication US12410153B2, “Compounds, compositions and methods” (Avalo Therapeutics, Inc., priority 2014, dated 2025)
Like-named read-outs stand apart in the source and are kept apart here.

How the values were obtained:
[1] = Polymorph stability (slurry and heating, XRPD); format: physicochemical; settings: between room temperature and 121° C.
Method: Crystalline Form II of Compound (I) was characterized using X-ray powder diffraction (XRPD) (FIG. 1A). The XRPD pattern corresponds to an anhydrous form denoted as Form II, which is highly crystalline. In addition to Form II, Compound (I) can exist as another anhydrous polymorph, denoted as Form I. The XRPD patterns of these phases are shown in FIG. 1B. A slurry experiment was performed at room temperature by adding approximately equal proportions of the two anhydrous phases to methyl-tert-butyl ether.

Sprague-Dawley rats [2] = assay: Locomotor assay; format: in vivo, rat
Method: To confirm that the effect of Form II in the forced swim test was not due to a general increase in activity levels, rats were subjected to a locomotor assay following oral Form II administration. Adult male Sprague-Dawley rats (N=42) were randomly assigned across the treatment groups (vehicle or Compound (I) at 0.1, 0.3, 1, 3, 10, and 30 mg/kg; N=6/group). Locomotor activity was assessed during the light cycle in photocell-monitored cages (Hamilton Kinder, San Diego, CA). Each cage consisted of a standard plastic rat cage (24×45.5 cm) surrounded by a stainless steel frame. Infrared photocell beams were located across the long axis of the frame to measure the ambulatory distance traveled. A second set of beams was placed above the floor and was used to measure rearing activity. Photocell beam interruptions were recorded by a computer system. Filter tops were placed on top of the test enclosures during testing. Rats were administered either vehicle or test compound via oral gavage twice on Day 1 (approximately 24 h before the test and prior to dark cycle) and once on Day 2 (45 min prior to placing in the locomotor cages for a 60-min test). Locomotor activity was captured in 5-min bins.

[3] = Human pharmacokinetic study, single ascending oral doses; format: in vivo; settings: for AUC(0-inf) / AUC(0-t) / Cmax / Tmax / half-life: male, human, plasma, oral
Method: Twenty-four healthy, young male subjects were assigned to 1 of 3 sequential treatment panels (A, B, and C). For each panel of 8 subjects, 2 subjects received placebo and 6 subjects were administered single ascending oral doses of crystalline Form II of Compound (I) with a minimum 7-day washout between each dose: Panel A (0.1, 0.2, 0.5, 1, and 2 mg); Panel B (2, 4, 8, and 15 mg, and 4 mg with food); and Panel C (15 and 20 mg). Blood samples were collected pre-dose and 0.5, 1, 1.5, 2, 3, 4, 6, 9, 12, 18, 24, 30, 48, and 72 h post dose. Plasma samples were analyzed for Form II concentrations using reversed phase high performance liquid chromatography with tandem mass spectrometric detection (Merck Research Laboratories). The analytical range was 0.5 to 500 nM (0.180 to 180 ng/mL).

[4] = Cardiovascular safety in conscious chair-restrained monkeys, single oral doses; format: in vivo, monkey; settings: monkey, plasma
Method: (§1) The potential effects of Form II of Compound (I) on the functions of the nervous system, cardiovascular system, and respiratory system were evaluated in a battery of safety pharmacology studies that included an in vitro human ether-a-go-go-related gene (hERG) assay and in vivo studies in rats, dogs, and monkeys. CNS effects were tested in rats at single doses at 15, 75, and 225 mg/kg.
(§2) Effects of Form II on the cardiovascular system were tested in several studies. Potential QTc effects were tested in vitro and in vivo.
(§3) Hemodynamic effects were tested in dogs and monkeys. […] However, Form II did produce dose-independent increases in systolic (12-15 mm Hg), diastolic (7-10 mm Hg), and mean arterial pressures (9-12 mm Hg) in conscious, chair-restrained monkeys given single oral doses at 15, 75, or 150 mg/kg and monitored for 6 h post-dose.

monkeys = assay: as above; format: in vivo, monkey
Method: as §1, §2, §3

rats = assay: Respiratory effects in male rats, single oral doses; format: in vivo, rat
Method: Respiratory effects were investigated in rats and dogs. […] Mean Form II plasma concentration was approximately 30 μM (10600 ng/mL) at the end of infusion and approximately 4 μM (1250 ng/mL) at 60 min post-infusion.

Sprague-Dawley rats [5] = assay: Rat forced swim test 24 hours after administration; format: in vivo; settings: 10 mg/kg, p.o., 24 hours before test, p<0.05
Method: This study aimed to evaluate the duration of the antidepressant-like effects of Form II of Compound (I) using the forced swim test in male, Sprague-Dawley rats. Clinically effective antidepressant compounds reduce immobility time and increase swimming in rodents subjected to this test. Rats received Compound (I) (10 mg/kg, p.o.) or ketamine (10 mg/kg, i.p.) and 24 hours later were subjected to testing. […] The data represent mean±SEM.

in vivo = settings: both, Sprague-Dawley, rat, po
[6] = 15, 75, or 150 mg/kg oral, dose-independent

In the case of `Cc1ccc(COC(=O)N2CC[C@H](CNc3ncccn3)[C@H](F)C2)cc1` [Form II, 4-methylbenzyl (3S, 4R)-3-fluoro-4-[(pyrimidin-2-ylamino)methyl] piperidine-1-carboxylate], the “thermodynamic stability of polymorph” value [1] is reported as “thermodynamically stable form”, the locomotor effects (Sprague-Dawley rats [2]; 0.1 and 0.3 mg/kg dose groups) is reported as “No locomotor effects” and the ED50 (Sprague-Dawley rats [2]; Rattus norvegicus, read-out: ED50 for increase in locomotor activity) is reported as about 2 mg/kg. For the same molecule, the distance traveled (Sprague-Dawley rats [2]; first 5 min of testing, 1, 3, 10, and 30 mg/kg vs vehicle) was “significantly increased”, the “RO corresponding to locomotor ED50” value (Sprague-Dawley rats [2]; rat, in vivo) was about 75% and the total distance traveled (Sprague-Dawley rats [2]; summed over 60-min test, 1, 3, 10, and 30 mg/kg vs vehicle) was “significantly increased”. The “decrease in Cmax, fed vs fasted” value ([3]; 4 mg) was about 56%, the “delay in Tmax, fed vs fasted” value ([3]; 4 mg) was about 1 h and the “overall extent of absorption (AUC), fed vs fasted” value ([3]; 4 mg) was “not affected”. The AUC(0-inf) ([3]; 2 mg, fasted, mean) was 493 ng·h/mL, the AUC(0-t) ([3]; 2 mg, fasted, mean) was 398 ng·h/mL and the Cmax ([3]; 2 mg, fasted, mean) was 51.5 ng/mL. For the same molecule, the Tmax ([3]; 2 mg, fasted, mean, read-out: Tmax) was 1.08 h, the half-life ([3]; 2 mg, fasted, mean, read-out: t1/2 (converted)) was 16.1 h and the AUC(0-inf) ([3]; 4 mg, 4 mg (fed), mean) was 1140 ng·h/mL. It also gave an AUC(0-t) ([3]; 4 mg, 4 mg (fed), mean) of 1080 ng·h/mL, a Cmax ([3]; 4 mg, 4 mg (fed), mean) of 80 ng/mL and a Tmax ([3]; 4 mg, 4 mg (fed), mean, read-out: Tmax) of 2 h. It also gave a half-life ([3]; 4 mg, 4 mg (fed), mean, read-out: t1/2 (converted)) of 17.3 h, an AUC(0-inf) ([3]; 4 mg, fasted, mean) of 1110 ng·h/mL and an AUC(0-t) ([3]; 4 mg, fasted, mean) of 1060 ng·h/mL. The Cmax ([3]; 4 mg, fasted, mean) was 141 ng/mL, the Tmax ([3]; 4 mg, fasted, mean, read-out: Tmax) was 0.67 h and the half-life ([3]; 4 mg, fasted, mean, read-out: t1/2 (converted)) was 16.9 h. For the same molecule, the AUC(0-inf) ([3]; 8 mg, fasted, mean) was 2260 ng·h/mL, the AUC(0-t) ([3]; 8 mg, fasted, mean) was 2150 ng·h/mL and the Cmax ([3]; 8 mg, fasted, mean) was 212 ng/mL. For the same molecule, the Tmax ([3]; 8 mg, fasted, mean, read-out: Tmax) was 0.92 h, the half-life ([3]; 8 mg, fasted, mean, read-out: t1/2 (converted)) was 17 h and the AUC(0-inf) ([3]; 15 mg, fasted, mean) was 4400 ng·h/mL. It also gave an AUC(0-t) ([3]; 15 mg, fasted, mean) of 3520 ng·h/mL, a Cmax ([3]; 15 mg, fasted, mean) of 385 ng/mL and a Tmax ([3]; 15 mg, fasted, mean, read-out: Tmax) of 1.04 h. The half-life ([3]; 15 mg, fasted, mean, read-out: t1/2 (converted)) was 16.8 h, the AUC(0-inf) ([3]; 20 mg, fasted, mean) was 5910 ng·h/mL and the AUC(0-t) ([3]; 20 mg, fasted, mean) was 5590 ng·h/mL. The Cmax ([3]; 20 mg, fasted, mean) was 590 ng/mL, the Tmax ([3]; 20 mg, fasted, mean, read-out: Tmax) was 1 h and the half-life ([3]; 20 mg, fasted, mean, read-out: t1/2 (converted)) was 15.9 h. The Tmax ([3]; across all fasted dose levels, read-out: mean Tmax) was at most 1 h, the half-life ([3]; over the 4- to 20-mg dose range, read-out: terminal elimination half-life) was 12 to 17 h and the “Cmax and AUC vs dose” value ([3]; over the dose range studied) was “dose-proportional”. For the same molecule, the Cmax ([4]; 15 mg/kg oral) was about 3 µM, the Cmax ([4]; 75 mg/kg oral) was about 9 µM and the Cmax ([4]; 150 mg/kg oral) was about 15 µM. The “heart rhythm and ECG parameters” value (monkeys; 15, 75, and 150 mg/kg oral, monitored 6 h) was “did not affect”, the “increase in diastolic pressure” value (monkeys; [6]) was 7-10 mm Hg and the “increase in mean arterial pressure” value (monkeys; [6]) was 9-12 mm Hg. The “increase in systolic pressure” value (monkeys; [6]) was 12-15 mm Hg, the “respiratory function (respiratory rate, tidal volume, minute ventilation, PenH)” value (rats; 15, 75, and 225 mg/kg oral) was “respiratory stimulation” and the “respiratory function at end of 6-h monitoring period” value (rats; ≥75 mg/kg oral) was “remained altered”. The immobility (Sprague-Dawley rats [5]) was “reduced immobility”, the swim time (Sprague-Dawley rats [5]) was “increased swim time significantly” and the Cmax (in vivo; 10 mg/kg) was about 4 µM. The Cmax (in vivo; 30 mg/kg) was about 14 µM and the Cmax (in vivo; 100 mg/kg) was about 26 µM.
